Entries after “also recorded” stand apart in the source; their conditions may differ.
Tests used:
[1] = system: U87MG Cell line (Glioblastoma cell line); assay: MTT cell proliferation assay, U87MG Cell line; format: cell-based; conditions: for viability at 0.01 µM / viability at 0.1 µM / viability at 2.5 µM / viability at 5 µM / viability at 10 µM: Homo sapiens, U-87 MG, U87MG, 72 h, MTT; for anticancer activity against U87-MG Cell line (in words): compared among 15 molecules
Procedure: (§1) 1. Protocol Followed for Anti Cancer Activity and Results, Cell Proliferation Assays: Cell lines used herein were purchased from NCCS (National Center for Cell Sciences) Pune, India. Invitro Activity was performed in NCL (National Chemical Laboratory) Pune. Each cell line was plated in 96-well microtiter plates (10,000 cells per well), and serial dilutions of indicated compounds were added. At the end of the incubation period (72 h at 37° C.), cell viability was determined by a tetrazolium dye, MTT (3-(4,5-dimethylthiazol-2-yl)-2,5-diphenyl tetrazolium bromide) (Promega, USA). The formazan crystals were dissolved in DMSO, and the absorbance at 600 nm was recorded using an ELISA plate reader. IC50 values were calculated using nonlinear regression and defined as the concentration needed for a 50% reduction in absorbance of treated versus untreated control cells.
By using the above procedure, the compounds of the invention were tested on U87MG Cell line (glioblastoma cell line) and the results obtained are presented below in table 8, Refer FIG. 5.

[2] = system: A549 Cell line (Lung Cancer Cell line); assay: MTT cell proliferation assay, A549 Cell line; format: cell-based, human; conditions: for viability at 0.01 µM / viability at 0.1 µM / viability at 2.5 µM / viability at 5 µM / viability at 10 µM: Homo sapiens, 72 h, MTT; for viability at 0.01 µM: A549, 0.01 μM; for viability at 0.1 µM: A549, 0.1 μM; for viability at 2.5 µM: A549, 2.5 μM; for viability at 5 µM: A549, 5 μM; for viability at 10 µM: A549, 10 μM; for anticancer activity against A549 Cell line (in words): compared among 15 molecules and with Gefitinib
Procedure: as §1
By using the above procedure, the compounds of the invention were tested on A549 Cell line and the results obtained are presented below in table 4, Refer FIG. 1.

HOP-62 Cell line = assay: MTT cell proliferation assay, HOP-62 Cell line; format: cell-based; conditions: for viability at 0.01 µM / viability at 0.1 µM / viability at 2.5 µM / viability at 5 µM / viability at 10 µM: Homo sapiens, 72 h, MTT; for viability at 0.01 µM: HOP-62, 0.01 μM; for viability at 0.1 µM: HOP-62, 0.1 μM; for viability at 2.5 µM: HOP-62, 2.5 μM; for viability at 5 µM: HOP-62, 5 μM; for viability at 10 µM: HOP-62, 10 μM; for anticancer activity against HOP-62 Cell line (in words): compared among 15 molecules and with Gefitinib
Procedure: as §1
By using the above procedure, the compounds of the invention were tested on HOP-62 Cell line and the results obtained are presented below in table 6, Refer FIG. 3.

Log P (Table 3) = format: physicochemical; conditions: no method given
MDA-MB-436 Cell line = assay: MTT cell proliferation assay, MDA-MB-436 Cell line; format: cell-based; conditions: for viability at 0.01 µM / viability at 0.1 µM / viability at 2.5 µM / viability at 5 µM / viability at 10 µM: Homo sapiens, 72 h, MTT; for viability at 0.01 µM: MDA-MB-436, 0.01 μM; for viability at 0.1 µM: MDA-MB-436, 0.1 μM; for viability at 2.5 µM: MDA-MB-436, 2.5 μM; for viability at 5 µM: MDA-MB-436, 5 μM; for viability at 10 µM: MDA-MB-436, 10 μM; for anticancer activity against MDA-MB-436 Cell line (in words): compared among 15 molecules and with Gefitinib
Procedure: as §1
By using the above procedure, the compounds of the invention were tested on MDA-MB-436 Cell line and the results obtained are presented below in table 7, Refer FIG. 4.

MCF-7 Cell line = assay: MTT cell proliferation assay, MCF-7 Cell line; format: cell-based; conditions: for viability at 0.01 µM / viability at 0.1 µM / viability at 2.5 µM / viability at 5 µM / viability at 10 µM: Homo sapiens, MCF7, 72 h, MTT; for viability at 0.01 µM: MCF-7, 0.01 μM; for viability at 0.1 µM: MCF-7, 0.1 μM; for viability at 2.5 µM: MCF-7, 2.5 μM; for viability at 5 µM: MCF-7, 5 μM; for viability at 10 µM: MCF-7, 10 μM; for anticancer activity against MCF-7 Cell line (in words): compared among 15 molecules
Procedure: as §1
Table 4 indicates anticancer activity against A549 Cell line. The Gefitinib was used as standard and % cell Viable was measured compared to control. The procedure used was MTT assay as mentioned. […] By using the above procedure, the compounds of the invention were tested on MCF-7 Cell line and the results obtained are presented below in table 5, Refer FIG. 2.

| Compound | viability at 0.01 µM [1] [%] | viability at 0.1 µM [1] [%] | viability at 2.5 µM [1] [%] | viability at 5 µM [1] [%] | viability at 10 µM [1] [%] | viability at 0.01 µM [2] [%] | viability at 0.1 µM [2] [%] | viability at 2.5 µM [2] [%] | viability at 5 µM [2] [%] | viability at 10 µM [2] [%] | viability at 0.01 µM (HOP-62 Cell line) [%] | viability at 0.1 µM (HOP-62 Cell line) [%] | viability at 2.5 µM (HOP-62 Cell line) [%] | viability at 5 µM (HOP-62 Cell line) [%] | viability at 10 µM (HOP-62 Cell line) [%] | viability at 0.01 µM (MDA-MB-436 Cell line) [%] | viability at 0.1 µM (MDA-MB-436 Cell line) [%] | viability at 2.5 µM (MDA-MB-436 Cell line) [%] | viability at 5 µM (MDA-MB-436 Cell line) [%] | viability at 10 µM (MDA-MB-436 Cell line) [%] | also measured |
| --- | --- | --- | --- | --- | --- | --- | --- | --- | --- | --- | --- | --- | --- | --- | --- | --- | --- | --- | --- | --- | --- |
| Nc1nc(Nc2ccccc2[N+](=O)[O-])sc1-c1nc2ccccc2[nH]1 [Molecule S4-M4, 5-(1H-benzo[d]imidazol-2-yl)-N^2-(2-nitrophenyl)thiazole-2,4-diamine] | 45.7 | 33.2 | 22.8 | 18.9 | 8.86 | 57.1 | 49.1 | 34.7 | 25.9 | 18.4 | 43.1 | 36.1 | 25.7 | 18.9 | 12.4 | 69.7 | 58.2 | 42.8 | 28.9 | 21.9 | anticancer activity against U87-MG Cell line (in words) [1]: most active; anticancer activity against A549 Cell line (in words) [2]: most active; anticancer activity against HOP-62 Cell line (in words) (HOP-62 Cell line; listed as M4): most active; also recorded: Invitro activity comparable to standard Gefitinib; logP (Log P (Table 3)): 3.33; anticancer activity against MDA-MB-436 Cell line (in words) (MDA-MB-436 Cell line; listed as M4): most active; also recorded: Invitro activity comparable to standard Gefitinib; melting point: 220 to 222 °C; viability at 0.01 µM (MCF-7 Cell line): 72.7%; viability at 0.1 µM (MCF-7 Cell line): 61.2%; viability at 2.5 µM (MCF-7 Cell line): 53.8%; viability at 5 µM (MCF-7 Cell line): 42.9%; viability at 10 µM (MCF-7 Cell line): 31.9%; anticancer activity against MCF-7 Cell line (in words) (MCF-7 Cell line; listed as M4): most active; also recorded: showing Invitro activity |
| Nc1nc(Nc2ccccc2)sc1-c1nc2ccccc2[nH]1 [Molecule S4-M1, 5-(1H-benzo[d]imidazol-2-yl)-N^2-phenylthiazole-2,4-diamine] | 40.8 | 32.4 | 23.1 | 14.6 | 8.94 | 49.1 | 39.1 | 29.1 | 15.1 | 10.9 | 54.1 | 42.1 | 34.1 | 22.1 | 12.9 | 82.8 | 70.4 | 67.1 | 54.6 | 40.9 | anticancer activity against U87-MG Cell line (in words) [1]: most active; anticancer activity against A549 Cell line (in words) [2]: most active; anticancer activity against HOP-62 Cell line (in words) (HOP-62 Cell line; listed as M1): most active; also recorded: Invitro activity comparable to standard Gefitinib; logP (Log P (Table 3)): 3.02; anticancer activity against MDA-MB-436 Cell line (in words) (MDA-MB-436 Cell line; listed as M1): most active; also recorded: Invitro activity comparable to standard Gefitinib; melting point: 268 to 270 °C; viability at 0.01 µM (MCF-7 Cell line): 69.8%; viability at 0.1 µM (MCF-7 Cell line): 60.4%; viability at 2.5 µM (MCF-7 Cell line): 49.1%; viability at 5 µM (MCF-7 Cell line): 42.6%; viability at 10 µM (MCF-7 Cell line): 30.9%; anticancer activity against MCF-7 Cell line (in words) (MCF-7 Cell line; listed as M1): most active; also recorded: showing Invitro activity |
| Nc1nc(Nc2ccc(Br)cc2F)sc1-c1nc2ccccc2[nH]1 [Molecule S4-M7, 5-(1H-benzo[d]imidazol-2-yl)-N^2-(4-bromo-2-fluorophenyl)thiazole-2,4-diamine] | 98.1 | 94.9 | 93.8 | 90.8 | 85.8 | 97.1 | 90.9 | 81.8 | 71.8 | 62.8 | 102 | 101 | 100 | 100 | 90.9 | 100 | 99.9 | 101 | 93.8 | 91.8 | logP (Log P (Table 3)): 3.2; melting point: 200 to 202 °C; viability at 0.01 µM (MCF-7 Cell line): 100%; viability at 0.1 µM (MCF-7 Cell line): 101%; viability at 2.5 µM (MCF-7 Cell line): 101%; viability at 5 µM (MCF-7 Cell line): 101%; viability at 10 µM (MCF-7 Cell line): 101% |
| Cc1cc(C)c(Nc2nc(N)c(-c3nc4ccccc4[nH]3)s2)c(C)c1 [Molecule S4-M6, 5-(1H-benzo[d]imidazol-2-yl)-N^2-mesitylthiazole-2,4-diamine] | 91.3 | 82.1 | 70 | 59 | 42.4 | 92.3 | 85.1 | 72 | 61 | 50 | 103 | 100 | 100 | 100 | 91 | 116 | 112 | 110 | 105 | 101 | logP (Log P (Table 3)): 2.11; melting point: 218 to 220 °C; viability at 0.01 µM (MCF-7 Cell line): 112%; viability at 0.1 µM (MCF-7 Cell line): 100%; viability at 2.5 µM (MCF-7 Cell line): 101%; viability at 5 µM (MCF-7 Cell line): 100%; viability at 10 µM (MCF-7 Cell line): 100% |
| Nc1nc(Nc2ccc(Cl)cc2)sc1-c1nc2ccccc2[nH]1 [Molecule S4-M5, 5-(1H-benzo[d]imidazol-2-yl)-N^2-(4-chlorophenyl)thiazole-2,4-diamine] | 92.8 | 80.6 | 72.9 | 60.9 | 49.9 | 95.8 | 85.6 | 73.9 | 65.9 | 54.9 | 101 | 92.6 | 88.9 | 82.9 | 75.9 | 99.8 | 99.6 | 99.9 | 99.9 | 98.9 | logP (Log P (Table 3)): 3.99; melting point: 210 to 212 °C; viability at 0.01 µM (MCF-7 Cell line): 89.8%; viability at 0.1 µM (MCF-7 Cell line): 83.6%; viability at 2.5 µM (MCF-7 Cell line): 79.9%; viability at 5 µM (MCF-7 Cell line): 72.9%; viability at 10 µM (MCF-7 Cell line): 65.9% |
| Cc1ccc(Nc2nc(N)c(-c3nc4cc(C)ccc4[nH]3)s2)cc1 [Molecule S4-M14, 5-(5-methyl-1H-benzo[d]imidazol-2-yl)-N2-p-tolylthiazole-2,4-diamine] | 87 | 78.1 | 67.6 | 53.3 | 46.1 | 96 | 84.1 | 71.1 | 62.1 | 51.1 | 101 | 95.1 | 93.6 | 88.3 | 80.1 | 99 | 98.1 | 98.6 | 99.3 | 94.1 | viability at 0.01 µM (MCF-7 Cell line): 94%; viability at 0.1 µM (MCF-7 Cell line): 90.1%; viability at 2.5 µM (MCF-7 Cell line): 83.6%; viability at 5 µM (MCF-7 Cell line): 69.3%; viability at 10 µM (MCF-7 Cell line): 65.1% |

From patent US9862712B2, “Benzimidazole based EGFR inhibitors” (COUNCIL OF SCIENTIFIC & INDUSTRIAL RESEARCH, priority 2014, dated 2018)
